In PMC6481345, “A novel anti-melanoma SRC-family kinase inhibitor” (Oncotarget, 2019):
Where two headings read alike, the source gives them in different places.

Key:
[1] = biological target: T1, MEK5 (Homo sapiens, UniProt Q13163); assay: KiNativ in situ kinase profiling in melanoma cell lysates; assay type: binding; settings: 3-point dose response
T1 construct: we tested the endogenous kinome response to SAB298; host or cells: YUSIV and YUSIK melanoma cell lysates
Method: (§1) The effect of SAB298 on a panel of 36 recombinant kinases, was screed with the radioisotope filter binding assay employing 10 concentrations of the compound with 10 µM ATP (Reaction Biology Corporation, Malvern, PA). In addition, we tested the endogenous kinome response to SAB298 (0.05 µM, 0.5 µM and 5 µM) in lysates from two melanoma cell lines (YUSIV and YUSIK) employing the KiNativ® platform (ActivX Biosciences Inc., La Jolla, CA). KiNativ® is a robust, high performance mass spectrometry (LC-MS^2) assay that uses biotinylated probes to measure relevant changes in the affinity to the ATP-binding sites of 205 native kinases as a function of cellular context. We also validated SAB298 effect on the activity of SRC-family kinases by probing for phosphorylated Y416, the marker of activated SFKs, with anti-IEDNEpYTAR antibodies (also known as Y419, #2101, Cell Signaling Technology, Beverly, MA). In some cases the cells were incubated overnight with 20 µM proteasome inhibitor MG-132 (CAS 133407-82-6, Millipore Sigma, Burlington, MA) to rescue degradation.

[2] = biological target: T2, EGFR (Homo sapiens, UniProt P00533); assay: as above; assay type: binding; settings: 3-point dose response
T2 construct: we tested the endogenous kinome response to SAB298; host or cells: YUSIV and YUSIK melanoma cell lysates
T2 sequence (P00533 25-1210): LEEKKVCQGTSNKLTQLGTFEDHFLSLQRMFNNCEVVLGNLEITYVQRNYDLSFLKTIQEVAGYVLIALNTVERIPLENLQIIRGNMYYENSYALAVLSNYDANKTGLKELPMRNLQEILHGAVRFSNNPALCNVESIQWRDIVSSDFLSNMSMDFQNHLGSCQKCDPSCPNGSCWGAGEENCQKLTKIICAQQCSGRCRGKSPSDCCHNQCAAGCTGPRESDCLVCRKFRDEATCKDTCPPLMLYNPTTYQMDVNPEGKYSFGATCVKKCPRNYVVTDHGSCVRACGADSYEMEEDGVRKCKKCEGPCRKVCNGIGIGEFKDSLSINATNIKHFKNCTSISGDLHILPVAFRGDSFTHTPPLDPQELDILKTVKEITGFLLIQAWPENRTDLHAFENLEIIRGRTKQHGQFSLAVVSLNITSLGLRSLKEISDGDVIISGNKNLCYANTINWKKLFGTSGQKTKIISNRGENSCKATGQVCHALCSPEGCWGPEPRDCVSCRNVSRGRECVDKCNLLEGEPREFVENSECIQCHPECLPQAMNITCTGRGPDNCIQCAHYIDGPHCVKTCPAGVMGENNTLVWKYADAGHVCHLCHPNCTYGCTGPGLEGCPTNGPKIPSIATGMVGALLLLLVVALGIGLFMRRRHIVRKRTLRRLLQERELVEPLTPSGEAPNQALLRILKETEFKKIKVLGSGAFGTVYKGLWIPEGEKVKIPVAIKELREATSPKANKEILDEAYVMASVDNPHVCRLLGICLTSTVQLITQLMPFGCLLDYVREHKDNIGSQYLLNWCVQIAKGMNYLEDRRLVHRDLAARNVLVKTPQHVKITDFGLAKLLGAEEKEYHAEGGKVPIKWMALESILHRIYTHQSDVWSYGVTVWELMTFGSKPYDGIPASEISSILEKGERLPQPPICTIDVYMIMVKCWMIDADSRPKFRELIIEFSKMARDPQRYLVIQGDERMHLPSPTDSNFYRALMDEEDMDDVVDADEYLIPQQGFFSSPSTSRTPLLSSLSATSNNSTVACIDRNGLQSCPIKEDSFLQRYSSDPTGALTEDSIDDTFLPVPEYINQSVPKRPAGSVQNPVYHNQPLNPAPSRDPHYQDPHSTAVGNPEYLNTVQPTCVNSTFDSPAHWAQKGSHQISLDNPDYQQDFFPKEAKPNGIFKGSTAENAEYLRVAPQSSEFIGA
Method: as §1

[3] = test system: pp38 T180/Y182; assay: Western blot, phospho-p38; assay type: cell-based, human; settings: YUSIV melanoma cells
Method: (§2) We used standard techniques to identify changes in intracellular signaling in response to various treatments. Briefly, melanoma cells were incubated with test compounds, using DMSO as a control, collected by scraping on ice, and lysed in RIPA buffer supplemented with protease and phosphatase inhibitors (MA #78428, and #78425, respectively, Thermo Fisher Scientific, Waltham, MA). Protein concentrations were measured with the BioRad kit (Bio-Rad Laboratories, Hercules, CA), SDS sample buffer was added, extracts were heated at 95°C, sonicated and centrifuged. Cell extracts (20 µg/lane) were fractionated in 3%–8% or 4–12 % tris-acetate gel (NP0006, NuPAGE Life Technologies). […]

[4] = test system: YUKIM melanoma cells; assay: CellTiter-Glo Luminescent Cell Viability Assay; assay type: cell-based, human
Method: (§3) The melanoma cells were grown in OptiMEM (Invitrogen, Carlsbad, CA) supplemented with 5% fetal calf serum and antibiotics. The normal human melanocytes (NBMEL) were grown in medium supplemented with bFGF, IBMX and dbcAMP [32]. Most of the Yale melanoma cell lines were characterized by next-generation sequencing (Supplementary Table 2).
(§4) Cell proliferation was measured with the CellTiter-Glo® Luminescent Cell Viability Assay (Promega Corporation, Madison, WI). Melanoma cells were seeded in 96-well plates in triplicate or quadruplet wells, with increasing concentrations of kinase inhibitors for 72 hrs. The rate of proliferation was also tested after knockdown of different SRC-family kinases (SFK) with hairpin lentivirus shRNA as indicated. […] The statistical significance of synergism of response to drug combinations was evaluated by following Chou and Talalay algorithm. See also details in Supplementary Material.

[5] = test system: YUSIK melanoma cells; assay: CellTiter-Glo Luminescent Cell Viability Assay; assay type: cell-based, human
Method: as §3, §4

[6] = test system: YUPEET melanoma cells; assay: CellTiter-Glo Luminescent Cell Viability Assay; assay type: cell-based, human
Method: as §3, §4

[7] = test system: tyrosinase; assay: Western blot, tyrosinase levels; assay type: cell-based, human; settings: YUSIK, YUKIM and YUPEET; 0.5 µM for 20 hrs
Method: as §2

[8] = test system: YUSIK melanoma tumors; assay: In vivo tumor growth, YUSIK melanoma xenograft; settings: YUSIK tumor bearing nude mice, 20 mg/kg daily intraperitoneal from day 12, vs solvent control; 6 mice; p = 0.0006
Method: All procedures involving animals were approved by the Institutional Animal Care and Use Committee of Yale University. YUSIK melanoma cells were grown to 80% confluency in 150 cm^2 flasks, detached by trypsinization, washed with PBS, and cell pellets were resuspended in 1:1 mixture of PBS and matrigel (BD Bioscience Cat #354234) to sustain cell viability. The cells (4 × 10^6/100 µl) were injected subcutaneously in the back flank of six weeks old female athymic Nude-Foxn1nu (nu/nu) mice (Charles River Laboratories, Wilmington, MA), and tumors were measuring daily with a caliper (length, width, and depth). When tumors reached palpable size (between 25–40 mm^3), the animals were randomized by tumor size and body weigh into two groups and were daily injected intraperitoneally with SAB298 (batch #AU0588-91, Sabila Biosciences LLC, 5 Overlook Road, New City, New York, 10956) or vehicle as controls (N = 6/each). […] The vehicle contained the same reagents but without SAB298.

T1 sequence (Q13163 whole entry): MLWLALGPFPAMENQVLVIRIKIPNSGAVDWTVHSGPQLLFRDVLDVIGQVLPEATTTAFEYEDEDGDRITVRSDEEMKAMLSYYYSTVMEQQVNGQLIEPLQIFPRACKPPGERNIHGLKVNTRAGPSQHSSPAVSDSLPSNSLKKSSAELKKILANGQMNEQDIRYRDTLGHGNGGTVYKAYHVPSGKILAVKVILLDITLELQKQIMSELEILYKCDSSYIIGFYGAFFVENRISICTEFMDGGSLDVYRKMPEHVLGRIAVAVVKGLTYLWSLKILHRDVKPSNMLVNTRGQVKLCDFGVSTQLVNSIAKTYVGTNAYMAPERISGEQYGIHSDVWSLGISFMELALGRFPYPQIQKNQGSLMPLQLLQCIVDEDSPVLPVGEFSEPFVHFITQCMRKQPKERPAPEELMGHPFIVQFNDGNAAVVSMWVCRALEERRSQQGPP

SMILES: Nc1ncnc2c1c(-c1ccc(Oc3ccccc3)cc1)nn2C[C@@H]1SSC[C@@H]1O [SAB298, (3S, 4S)-3-((4-amino-3-(4-phenoxyphenyl)-1H-pyrazolo[3,4-d]pyrimidin-1-yl)methyl)-1,2-dithiolan-4-ol]
- IC50 ([1]; MEK5 in YUSIK lysate): 1500 nM
- IC50 ([1]; MEK5 in YUSIV lysate): 370 nM
- IC50 ([2]; EGFR in YUSIK lysate): 530 nM
- IC50 ([2]; EGFR in YUSIV lysate): 1300 nM
- pp38 T180/Y182 level [3]: induced p38 T180/Y182 phosphorylation
- IC50 ([4]; Homo sapiens, NRAS Q61R, cell viability, 72 hrs): 561 nM
- AUC1 ([4]; growth response): 173
- AUC2 ([4]; growth response): 60
- IC50 ([5]; Homo sapiens, 72 h, YUSIK, BRAF V600E, cell viability, 72 hrs, read-out: IC50): 129 nM
- IC50 ([5]; Homo sapiens, YUSIK BRAF V600E, Variation 2 (0 effect omitted), read-out: Dm (dose for median effect, median-effect equation)): 155 nM
- IC50 ([5]; Homo sapiens, YUSIK BRAFV600E, Variation 1 (0 effect coded 1E-6), read-out: Dm (dose for median effect, median-effect equation)): 864 nM
- IC50 ([5]; YUSIK, BRAF V600E, cell viability, 72 hrs, read-out: IC50): 141 nM
- AUC1 ([5]; YUSIK, growth response): 540
- AUC2 ([5]; YUSIK, growth response): 23
- IC50 ([6]; Homo sapiens, BRAF V600E, cell viability, 72 hrs): 55 nM
- AUC1 ([6]; growth response): 672
- AUC2 ([6]; growth response): 7
- tyrosinase levels [7]: suppressed the levels of tyrosinase
- Tumor growth [8]: significantly suppressed the growth
